Experimental data from patent publication US20140248635A1, “ALPHA-TUBULIN […]” (University of Georgia Research Foundation, Inc., priority 2010, published 2014).

Legend:
GST-MmMEC-17 = experiment: In vitro tubulin acetyltransferase assay: effect of added agents on MEC-17 activity; type: biochemical, murine; conditions: purified MEC17-KO tubulin or axonemes, acetyl-CoA
From the text: To disrupt the MEC-17 gene in Tetrahymena, we used homologous DNA recombination with a fragment carrying the neo4 marker that replaced the coding region. MEC-17 was overexpressed in Tetrahymena using the MTT1 cadmium-dependent promoter. In C. elegans, MEC-12-K40, MEC-12-Q40, and MEC-12-R40 transgenes were introduced into a single site on chromosome II in the EG4322 strain. Animals homozygous for a MEC-12 transgene and homozygous for the mec-12(e1607) allele were obtained by standard crosses. All touch sensation assays in C. elegans were done using blind scoring. To deplete human MEC-17 (C6Orf134) mRNA in Hela cells, we introduced MEC-17-specific siRNAs (ON-TARGETplus pool, Dharmacon) using Oligofectamine (Invitrogen). To knockdown mec17 expression in zebrafish, MOs designed to target the MEC-17 mRNA (Open Biosystems) were injected into early embryos. ATG-MEC17 MO targets the translation initiation site of mec17 mRNA. SP-MEC17 MO targets the exon3/intron3-4 splice junction, and is expected to result in an aberrant splicing isoform of exon2 to exon 4, producing a frameshift mutation and associated protein truncation. As a negative control, we injected MO with a random sequence (oligo-25N, Gene Tools) or a 5 bp mismatch to the ATG-MEC17 MO. Live embryos were scored for phenotypes at 48 hpf. […] The reaction was detected by western blotting using anti-acetyl-K antibodies. […]

zebrafish embryos = experiment: Phenotypes of live zebrafish embryos at 48 hpf after morpholino injection; type: in vivo
From the text: To disrupt the MEC-17 gene in Tetrahymena, we used homologous DNA recombination with a fragment carrying the neo4 marker that replaced the coding region. MEC-17 was overexpressed in Tetrahymena using the MTT1 cadmium-dependent promoter. In C. elegans, MEC-12-K40, MEC-12-Q40, and MEC-12-R40 transgenes were introduced into a single site on chromosome II in the EG4322 strain. Animals homozygous for a MEC-12 transgene and homozygous for the mec-12(e1607) allele were obtained by standard crosses. All touch sensation assays in C. elegans were done using blind scoring. To deplete human MEC-17 (C6Orf134) mRNA in Hela cells, we introduced MEC-17-specific siRNAs (ON-TARGETplus pool, Dharmacon) using Oligofectamine (Invitrogen). To knockdown mec17 expression in zebrafish, MOs designed to target the MEC-17 mRNA (Open Biosystems) were injected into early embryos. ATG-MEC17 MO targets the translation initiation site of mec17 mRNA. SP-MEC17 MO targets the exon3/intron3-4 splice junction, and is expected to result in an aberrant splicing isoform of exon2 to exon 4, producing a frameshift mutation and associated protein truncation. As a negative control, we injected MO with a random sequence (oligo-25N, Gene Tools) or a 5 bp mismatch to the ATG-MEC17 MO. Live embryos were scored for phenotypes at 48 hpf. To produce a recombinant MEC-17 protein, the cDNA sequence of the murine MEC-17 (BF135007, Open Biosystems) was subcloned into pGEX-3× plasmid (GE Healthcare), expressed in BL21 E. coli cells as a GST fusion and purified using GST-Bind kit (Novagen). The in vitro acetylation assays were performed in 50 mM Tris-HCl pH 8.0, […], 0.1 mM EDTA, with purified Tetrahymena MEC-17-KO axonemes or tubulin (purified using DEAE chromatography), recombinant GST-MmMEC-17 enzyme and 10 μM acetyl-CoA. The reaction was detected by western blotting using anti-acetyl-K antibodies.
ATG-MEC17 targets the translation initiation site of MEC-17 mRNA. SP-MEC17 MO targets the exon3/intron3-4 splice junction, and is expected to result in an aberrantly spliced isoform in which exon2 is joined to exon 4. The predicted transcript contains a frameshift mutation and encodes a nonsense protein. As a negative control we injected MO with a random sequence (oligo-25N, Gene Tools) or a 5 bp mismatch to the ATG-MEC17 MO (5′-CATTgAcGTCcTAAGGcAAATgCAT-3′; SEQ ID NO:9). Live embryos were scored for phenotypes at 48 hpf, or fixed processed for immunofluorescence as described (Wloga et al., 2009 Dev Cell 16:867-876). The antibodies were used in the following concentrations: 6-11 B-1 mAb (1:1000), Znp-1 anti-synaptotagmin 1 mAb (1:100). After incubation with secondary antibodies (Zymed) overnight at 4° C. (1:500) embryos were mounted in 100 mg/ml of DABCO (Sigma-Aldrich) in PBS and viewed in a Leica TCS SP confocal microscope. Live zebrafish morphants shown in videos S1-S3 were recorded using on the Zeiss Stemi SV11 Apo microscope and a SPOT FLEX camera (Diagnostic Instruments Inc.) at 12 frames per second.

[1] = tested on: MEC-17-KO Tetrahymena cells; experiment: Response of Tetrahymena strains to microtubule drugs (growth, axonemes); type: cell-based; conditions: MEC-17-KO vs wild type
Method: Cells were suspended at 10^5 cell/ml in SPP medium and incubated with the drug for 22 hr at 30° C. and the cell density was determined.

HDAC6 = target: T1, HDAC6 (Homo sapiens, UniProt Q9UBN7); conditions: cited from earlier work
T1 sequence (Q9UBN7 1-1215): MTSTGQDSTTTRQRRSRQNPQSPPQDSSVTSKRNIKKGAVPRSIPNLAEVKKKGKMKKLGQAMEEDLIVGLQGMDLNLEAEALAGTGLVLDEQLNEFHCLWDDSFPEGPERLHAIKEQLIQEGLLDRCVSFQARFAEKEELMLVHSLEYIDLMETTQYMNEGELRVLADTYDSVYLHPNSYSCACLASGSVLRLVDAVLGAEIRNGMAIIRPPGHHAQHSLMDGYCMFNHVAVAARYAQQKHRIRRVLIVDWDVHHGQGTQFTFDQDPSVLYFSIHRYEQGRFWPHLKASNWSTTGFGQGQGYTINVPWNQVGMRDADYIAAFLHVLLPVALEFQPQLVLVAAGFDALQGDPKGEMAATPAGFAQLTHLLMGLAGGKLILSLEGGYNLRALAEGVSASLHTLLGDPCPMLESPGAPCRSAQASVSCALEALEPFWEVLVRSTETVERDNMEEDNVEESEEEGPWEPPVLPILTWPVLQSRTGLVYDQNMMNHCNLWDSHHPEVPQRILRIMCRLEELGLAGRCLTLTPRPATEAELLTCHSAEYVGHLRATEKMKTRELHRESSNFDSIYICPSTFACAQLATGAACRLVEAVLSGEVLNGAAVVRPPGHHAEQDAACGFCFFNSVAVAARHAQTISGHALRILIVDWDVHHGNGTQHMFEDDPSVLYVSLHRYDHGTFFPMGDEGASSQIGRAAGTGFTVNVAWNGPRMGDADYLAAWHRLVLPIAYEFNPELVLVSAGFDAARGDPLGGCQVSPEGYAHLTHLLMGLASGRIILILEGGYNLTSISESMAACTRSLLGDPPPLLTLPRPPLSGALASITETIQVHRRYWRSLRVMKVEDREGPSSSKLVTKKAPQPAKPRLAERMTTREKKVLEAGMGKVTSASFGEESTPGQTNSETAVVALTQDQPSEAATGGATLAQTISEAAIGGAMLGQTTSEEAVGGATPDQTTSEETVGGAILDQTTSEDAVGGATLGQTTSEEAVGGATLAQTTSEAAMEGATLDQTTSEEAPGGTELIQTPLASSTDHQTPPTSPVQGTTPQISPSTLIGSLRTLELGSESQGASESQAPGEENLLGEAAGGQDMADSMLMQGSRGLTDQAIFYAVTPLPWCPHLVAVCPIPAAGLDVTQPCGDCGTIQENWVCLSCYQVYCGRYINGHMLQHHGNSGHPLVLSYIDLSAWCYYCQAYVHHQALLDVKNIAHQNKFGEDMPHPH

mec17 mRNA = experiment: RT-PCR of mec17 mRNA in morpholino-injected embryos; type: in vivo, zebrafish; conditions: RT-PCR exon 1 to exon 5
Method: Total cDNA was made using randomly-primed mRNA isolated from either control (WT) or embryos injected with 5 bp mismatch MO (MIS), ATG-MO (ATG), or splice-site MO (SP), and amplified using either primers corresponding to the coding sequence of the β-actin gene (top panel) or primers that correspond to the sequence of mec17 between exon 1 and exon 5 (bottom panel). As controls, amplifications were performed on samples that lacked reverse transcriptase (−RT). Note that the β-actin gene primers gave a robust product of the expected size (100 bp) for all +RT samples (top).
For RT-PCR, mRNA was isolated from 70 embryos 24 hpf using TRIzol reagent (Invitrogen, Carslbad, Calif.), and total cDNA was synthesized using iScript cDNA synthesis kit (Bio-Rad Laboratories, Hercules, Calif.). The sequences of primers used to amplify the mec17 cDNA were: MEC17EX1F 5′-[…]-3′ (SEQ ID NO:10) and MEC17EX5R2 5′-[…]-3′ (SEQ ID NO:11). The forward primer binds to exon 1 and the reverse primer binds to exon 5 (the splice blocking morpholino binds to the junction between exon 3 and the intron 3-4). For the control amplification of β-actin cDNA, we used the following primers: 5′-[…]-3′ (SEQ ID NO:12) and 5′-[…]-3′ (SEQ ID NO:13).

| Compound | effect on MEC-17 acetylation activity (GST-MmMEC-17) | Edema of the heart (frequency of phenotype) (zebrafish embryos; Table 2, 1 ng MO, 48 hpf) | Hydrocephaly (frequency of phenotype) (zebrafish embryos; Table 2, 1 ng MO, 48 hpf) | Lethality (frequency of phenotype) (zebrafish embryos; Table 2, 1 ng MO, 48 hpf) | Mobility: reduced mobility (zebrafish embryos; Table 2, 1 ng MO, 48 hpf) | Short body axis (frequency of phenotype) (zebrafish embryos; Table 2, 1 ng MO, 48 hpf) | Small head/eyes: small eyes (zebrafish embryos; Table 2, 1 ng MO, 48 hpf) | Small head/eyes: small heads (zebrafish embryos; Table 2, 1 ng MO, 48 hpf) | Edema of the heart (frequency of phenotype) (zebrafish embryos; Table 1, 1 ng MO, 48 hpf) | Hydrocephaly (frequency of phenotype) (zebrafish embryos; Table 1, 1 ng MO, 48 hpf) | Lethality (frequency of phenotype) (zebrafish embryos; Table 1, 1 ng MO, 48 hpf) | Paralyzed (frequency of phenotype) (zebrafish embryos; Table 1, 1 ng MO, 48 hpf) | Reduced mobility (frequency of phenotype) (zebrafish embryos; Table 1, 1 ng MO, 48 hpf) | Short body axis (frequency of phenotype) (zebrafish embryos; Table 1, 1 ng MO, 48 hpf) | Small head/eyes (frequency of phenotype) (zebrafish embryos; Table 1, 1 ng MO, 48 hpf) | further results |
| --- | --- | --- | --- | --- | --- | --- | --- | --- | --- | --- | --- | --- | --- | --- | --- | --- |
| Nc1nc2c(ncn2[C@@H]2O[C@H](COP(=O)(O)OP(=O)(O)OP(=O)(O)O)[C@@H](O)[C@H]2O)c(=O)[nH]1 [GTP] | stimulated | – | – | – | – | – | – | – | – | – | – | – | – | – | – | – |
| ATG MIS MO: negative control MO, 5 bp mismatch to the ATG-MEC17 MO, 5′-CATTgAcGTCcTAAGGcAAATgCAT-3′ (SEQ ID NO:9) (CATTGACGTCCTAAGGCAAATGCAT; all phosphorodiamidate morpholino (PMO)) [reference compound] | – | 3.8% | 0% | 2.5% | 2.5% reduced mobility | 5.1% | 1.2% small eyes | 6.4% small heads | – | – | – | – | – | – | – | gross embryo phenotype / developmental defects (zebrafish embryos; injected embryos): appeared normal |
| CC(=O)O[C@H]1C(=O)[C@@]2(C)[C@H]([C@H](OC(=O)c3ccccc3)[C@]3(O)C[C@H](OC(=O)[C@H](O)[C@@H](NC(=O)c4ccccc4)c4ccccc4)C(C)=C1C3(C)C)[C@]1(OC(C)=O)CO[C@@H]1C[C@@H]2O [Paclitaxel, paclitaxel, reference compound] | stimulated | – | – | – | – | – | – | – | – | – | – | – | – | – | – | growth of MEC-17-KO cells in medium with drug, compared with wild type [1]: grew faster than wild-type cells |
| O=C(CCCCCCC(=O)Nc1ccc([C@H]2O[C@@H](CSc3nc(-c4ccccc4)c(-c4ccccc4)o3)C[C@@H](c3ccc(CO)cc3)O2)cc1)NO [tubacin] | – | – | – | – | – | – | – | – | – | – | – | – | – | – | – | inhibition of HDAC6 (HDAC6): a specific inhibitor |
| MEC-17 ATG MO: morpholino 5′-CATTCAGGTCGTAAGGGAAATCCAT-3′ (SEQ ID NO:7); targets the translation initiation site of MEC-17 mRNA (all phosphorodiamidate morpholino (PMO)) | – | 7.9% | 13.8% | 3.7% | 17.5% reduced mobility | 27.1% | 74.4% small eyes | 79.2% small heads | 15.4% | 15% | 7% | 15.4% | 41.6% | 35.7% | 28.5% | Mobility: paralyzed (zebrafish embryos; Table 2, 1 ng MO, 48 hpf): 10.1% paralyzed |
| MEC-17 SP MP: morpholino 5′-AGAGAAAGCTATTTTACCCGTTCTG-3′ (SEQ ID NO:8); targets the exon3/intron3-4 splice junction of mec17 (all phosphorodiamidate morpholino (PMO)) | – | – | – | – | – | – | – | – | 13.2% | 33% | 28% | 15% | 23.5% | 41.5% | 47.1% | levels of mec17 mRNA (mec17 mRNA): severe reduction |
